Measured values reported in PMC9776540, “Therapeutic Potential of a Water-Soluble Silver-Diclofenac Coordination Polymer on 3D Pancreatic Cancer Spheroids” (Journal of Medicinal Chemistry, 2022).
Where a name gives a salt, the structure may show the parent alone.

Experiments:
[1] = system: PANC-1 cells; conditions: PANC-1, 1 at IC50, others at molar ratio 1:1:1, 72 h after treatment
Experimental: (§1) MCF7 cell line (human breast adenocarcinoma, morphology: epithelial-like, ATCC: HTB-22), A549 cell […]
(§2) keratinocyte, morphology: epidermal, CSL Cell Lines Service GmbH); were cultured in Dulbecco’s Modified Eagle’s Medium (DMEM, Corning) with phenol red, supplemented with 10% fetal bovine serum (FBS) and with 1% streptomycin/penicillin. […]
(§3) from metastatic site: brain, ATCC: HTB-81) and MCR-5 cell line (primary line of human pulmonary […]
(§4) 10% fetal bovine serum (FBS). Cultures were incubated at 37 °C under a humidified atmosphere containing 5% CO2. Cells were transferred using a solution containing 0.05% trypsin and 0.5 mM EDTA.
All media and other ingredients were purchased from ALAB, Poland. […]
Acridine Orange (OA) and Propidium Iodide PI Staining
AO is a nucleic acid-binding fluorophore that is cell membrane permeable and suitable for selective staining of nucleated living cells. PI is a nucleic acid-binding dye that is impermeable to live cells and suitable for staining dead or dying nucleated cells. All live, nucleated cells fluoresce green due to AO, and dead, nucleated cells are stained with both AO and PI and fluoresce red. For analysis of 1-induced

[2] = system: pBR322 plasmid; test: DNA strand break analysis, agarose gel electrophoresis; type: biochemical; conditions: pBR322, 24 h, even at high concentration (500 μM)
Experimental: Then, the interaction between DNA and diclofenac, PTA, or 1 was evaluated by the gel electrophoresis of pBR322 plasmid to determine an ability to cause double- and/or single-strand DNA damages (Figure 6D). The double-strand damage may result in the appearance of different forms of DNA (linear form III and relaxed form II), which can be quantified by densitometry analysis (Figure 6E).
DNA Strand Break Analysis
The ability of 1, PTA and diclofenac to induce single- or double-strand breaks in plasmid DNA was tested
with the pBR322 plasmid (c = 0.5 mg/mL). All compounds were dissolved in water (c = 1 µM-500 µM).
After 1 h incubation at 37 °C, the reaction mixtures (20 μL) were mixed with 3 μL of loading buffer
(bromophenol blue in 30% glycerol) and loaded on 1% agarose gels, containing EB, in TBE buffer (90
mM Tris–borate, 20 mM EDTA, pH = 8.0). Gel electrophoresis was performed at a constant voltage of
100 V (4 V/cm) for 60 min. The gel was photographed and processed with a Digital Imaging System
(Syngen Biotech). For the densitometric analysis the UltraQuant 6.0 program was used.

[3] = system: A549; test: MTT survival test, surviving fraction (Table S3); type: cell-based, human
Experimental: (§5) 24, and 72 h. After each incubation time, the cells were washed with PBS. Then, fresh medium (supplemented with 10% FSB) was added, and the cells were incubated under standard conditions for another 24 h (6h + 24h, 24h + 24h, 72h + 24h). After this time, the MTT survival test was done. Surviving fraction given in % was estimated with relation to untreated cells. In the case of 6h + 24h and 24h + 24h approaches, the cells were seeded at 10 000 cells per well, while in the case of 72h + 24h at […]

[4] = system: DU-145; test: MTT survival test, surviving fraction (Table S3); type: cell-based, human
Experimental: as §5

[5] = system: MCF-7; test: MTT survival test, surviving fraction (Table S3); type: cell-based, human
Experimental: as §5

[6] = system: HaCat; test: MTT survival test, surviving fraction (Table S3); type: cell-based, human
Experimental: as §5

[7] = system: PANC-1; test: MTT survival test, surviving fraction (Table S3); type: cell-based, human
Experimental: as §5

[8] = comparison values, no method or reference printed at the place; cited from earlier work
[9] = system: MCF7; test: MTT cytotoxicity assay (IC50); type: cell-based, human; conditions: Homo sapiens; MCF7, after 72 h incubation, MTT, vs untreated control cells; read-out: IC50
Experimental: as §1, §2, §3, §4
(§6) All media and other ingredients were purchased from ALAB, Poland.
(§7) Cytotoxicity was assessed by MTT assay performed according the protocols described elsewhere.S1 In brief, 1×10^4 cells per well, seeded in 96-well flat bottom microtiter plate, were incubated with the tested compounds (in the appropriate media) at various range of concentrations for 24 h. After that time, solutions of compounds were washed out, cells were washed three times with PBS and fresh medium was applied. After next 72 h cell viability was determined using the Hill equation (Origin 9.0) with regard to the untreated cells (control), where y0 – untreated cell control (which was set to 100% viability), y100 – a lysis control (where the cells were treated with 0.5% triton X-100 was set to 0% […]
(§8) [c] at which the viability of the cells reaches 50%, H – the Hill coefficient (describing cooperativity):
(§9) Each compound concentration was tested in five replicates and repeated at least three times.
(§10) Determined values of IC50 are given as mean + S.D. (Standard Deviation).
(§11) Cisplatin was tested as a reference anticancer drug. […]

[10] = system: A549; test: MTT cytotoxicity assay (IC50); type: cell-based, human; conditions: Homo sapiens; A549, after 72 h incubation, MTT, vs untreated control cells; read-out: IC50
Experimental: as §1, §2, §3, §4, §6, §7, §8, §9, §10, §11

[11] = system: MRC5; test: MTT cytotoxicity assay (IC50); type: cell-based, human; conditions: Homo sapiens; MRC5 normal cells, after 72 h incubation, MTT, vs untreated control cells; read-out: IC50
Experimental: as §1, §2, §3, §4, §6, §7, §8, §9, §10, §11

[12] = system: DU-145; test: MTT cytotoxicity assay (IC50); type: cell-based, human; conditions: Homo sapiens; DU-145, after 72 h incubation, MTT, vs untreated control cells; read-out: IC50
Experimental: as §1, §2, §3, §4, §6, §7, §8, §9, §10, §11

[13] = system: HaCat; test: MTT cytotoxicity assay (IC50); type: cell-based, human; conditions: Homo sapiens; HaCat normal cells, after 72 h incubation, MTT, vs untreated control cells; read-out: IC50
Experimental: as §1, §2, §3, §4, §6, §7, §8, §9, §10, §11

[14] = system: PANC-1; test: MTT cytotoxicity assay (IC50); type: cell-based, human; conditions: Homo sapiens; PANC-1, after 72 h incubation, MTT, vs untreated control cells; read-out: IC50
Experimental: as §1, §2, §3, §4, §6, §7, §8, §9, §10, §11

## O=C(O)Cc1ccccc1Nc1c(Cl)cccc1Cl [NaDf, diclofenac sodium salt]
[1]
  cytotoxicity seen by AO/PI staining: did not induce visible cytotoxicity
[2]
  degradation of plasmid DNA: no degradation of DNA
[3]; A549, 6h + 24h, dil. 10 000x (stocks: diclofenac 0.918, PTA 0.483, AgNO3 0.326 mg/mL)
  surviving fraction: 99.7 ± 4.3%
[3]; A549, 6h + 24h, dil. 100x (stocks: diclofenac 0.918, PTA 0.483, AgNO3 0.326 mg/mL)
  surviving fraction: 72.5 ± 6.8%
[3]; A549, 6h + 24h, dil. 1000x (stocks: diclofenac 0.918, PTA 0.483, AgNO3 0.326 mg/mL)
  surviving fraction: 88.7 ± 10.8%
[3]; A549, 24h + 24h, dil. 10 000x (stocks: diclofenac 0.918, PTA 0.483, AgNO3 0.326 mg/mL)
  surviving fraction: 98.5 ± 10.9%
[3]; A549, 24h + 24h, dil. 100x (stocks: diclofenac 0.918, PTA 0.483, AgNO3 0.326 mg/mL)
  surviving fraction: 70.9 ± 8.9%
[3]; A549, 24h + 24h, dil. 1000x (stocks: diclofenac 0.918, PTA 0.483, AgNO3 0.326 mg/mL)
  surviving fraction: 81.8 ± 6.8%
[3]; A549, 72h + 24h, dil. 10 000x (stocks: diclofenac 0.918, PTA 0.483, AgNO3 0.326 mg/mL)
  surviving fraction: 89.5 ± 8.2%
[3]; A549, 72h + 24h, dil. 100x (stocks: diclofenac 0.918, PTA 0.483, AgNO3 0.326 mg/mL)
  surviving fraction: 67.7 ± 6.5%
[3]; A549, 72h + 24h, dil. 1000x (stocks: diclofenac 0.918, PTA 0.483, AgNO3 0.326 mg/mL)
  surviving fraction: 78.5 ± 7.6%
[4]; Du-145, 6h + 24h, dil. 10 000x (stocks: diclofenac 0.918, PTA 0.483, AgNO3 0.326 mg/mL)
  surviving fraction: 99.5 ± 8.2%
[4]; Du-145, 6h + 24h, dil. 100x (stocks: diclofenac 0.918, PTA 0.483, AgNO3 0.326 mg/mL)
  surviving fraction: 78.2 ± 5.6%
[4]; Du-145, 6h + 24h, dil. 1000x (stocks: diclofenac 0.918, PTA 0.483, AgNO3 0.326 mg/mL)
  surviving fraction: 87.7 ± 9.8%
[4]; Du-145, 24h + 24h, dil. 10 000x (stocks: diclofenac 0.918, PTA 0.483, AgNO3 0.326 mg/mL)
  surviving fraction: 99.5 ± 10.7%
[4]; Du-145, 24h + 24h, dil. 100x (stocks: diclofenac 0.918, PTA 0.483, AgNO3 0.326 mg/mL)
  surviving fraction: 78.7 ± 7.6%
[4]; Du-145, 24h + 24h, dil. 1000x (stocks: diclofenac 0.918, PTA 0.483, AgNO3 0.326 mg/mL)
  surviving fraction: 88.4 ± 6.7%
[4]; Du-145, 72h + 24h, dil. 10 000x (stocks: diclofenac 0.918, PTA 0.483, AgNO3 0.326 mg/mL)
  surviving fraction: 88.7 ± 6.1%
[4]; Du-145, 72h + 24h, dil. 100x (stocks: diclofenac 0.918, PTA 0.483, AgNO3 0.326 mg/mL)
  surviving fraction: 70.8 ± 7.9%
[4]; Du-145, 72h + 24h, dil. 1000x (stocks: diclofenac 0.918, PTA 0.483, AgNO3 0.326 mg/mL)
  surviving fraction: 71.4 ± 8.5%
[5]; MCF-7, 6h + 24h, dil. 10 000x (stocks: diclofenac 0.918, PTA 0.483, AgNO3 0.326 mg/mL)
  surviving fraction: 102.6 ± 13.4%
[5]; MCF-7, 6h + 24h, dil. 100x (stocks: diclofenac 0.918, PTA 0.483, AgNO3 0.326 mg/mL)
  surviving fraction: 78.6 ± 12.3%
[5]; MCF-7, 6h + 24h, dil. 1000x (stocks: diclofenac 0.918, PTA 0.483, AgNO3 0.326 mg/mL)
  surviving fraction: 89.5 ± 9.8%
[5]; MCF-7, 24h + 24h, dil. 10 000x (stocks: diclofenac 0.918, PTA 0.483, AgNO3 0.326 mg/mL)
  surviving fraction: 98.2 ± 9.8%
[5]; MCF-7, 24h + 24h, dil. 1000x (stocks: diclofenac 0.918, PTA 0.483, AgNO3 0.326 mg/mL)
  surviving fraction: 88.7 ± 10.6%
[5]; MCF-7, 72h + 24h, dil. 10 000x (stocks: diclofenac 0.918, PTA 0.483, AgNO3 0.326 mg/mL)
  surviving fraction: 97.8 ± 7.7%
[5]; MCF-7, 72h + 24h, dil. 1000x (stocks: diclofenac 0.918, PTA 0.483, AgNO3 0.326 mg/mL)
  surviving fraction: 85.4 ± 5.3%
[6]; 6h + 24h, dil. 10 000x (stocks: diclofenac 0.918, PTA 0.483, AgNO3 0.326 mg/mL)
  surviving fraction: 99.6 ± 10.8%
[6]; 6h + 24h, dil. 100x (stocks: diclofenac 0.918, PTA 0.483, AgNO3 0.326 mg/mL)
  surviving fraction: 86.5 ± 11.7%
[6]; 6h + 24h, dil. 1000x (stocks: diclofenac 0.918, PTA 0.483, AgNO3 0.326 mg/mL)
  surviving fraction: 92.5 ± 9.1%
[6]; 24h + 24h, dil. 10 000x (stocks: diclofenac 0.918, PTA 0.483, AgNO3 0.326 mg/mL)
  surviving fraction: 99.3 ± 12.8%
[6]; 24h + 24h, dil. 100x (stocks: diclofenac 0.918, PTA 0.483, AgNO3 0.326 mg/mL)
  surviving fraction: 88.8 ± 5.8%
[6]; 24h + 24h, dil. 1000x (stocks: diclofenac 0.918, PTA 0.483, AgNO3 0.326 mg/mL)
  surviving fraction: 99.2 ± 6.8%
[6]; 72h + 24h, dil. 10 000x (stocks: diclofenac 0.918, PTA 0.483, AgNO3 0.326 mg/mL)
  surviving fraction: 102.3 ± 11.2%
[6]; 72h + 24h, dil. 100x (stocks: diclofenac 0.918, PTA 0.483, AgNO3 0.326 mg/mL)
  surviving fraction: 88.4 ± 5.2%
[6]; 72h + 24h, dil. 1000x (stocks: diclofenac 0.918, PTA 0.483, AgNO3 0.326 mg/mL)
  surviving fraction: 99.2 ± 5.9%
[7]; PANC-1, 6h + 24h, dil. 10 000x (stocks: diclofenac 0.918, PTA 0.483, AgNO3 0.326 mg/mL)
  surviving fraction: 98.6 ± 7.8%
[7]; PANC-1, 6h + 24h, dil. 100x (stocks: diclofenac 0.918, PTA 0.483, AgNO3 0.326 mg/mL)
  surviving fraction: 75.3 ± 6.4%
[7]; PANC-1, 6h + 24h, dil. 1000x (stocks: diclofenac 0.918, PTA 0.483, AgNO3 0.326 mg/mL)
  surviving fraction: 84.5 ± 9.8%
[7]; PANC-1, 24h + 24h, dil. 10 000x (stocks: diclofenac 0.918, PTA 0.483, AgNO3 0.326 mg/mL)
  surviving fraction: 89.5 ± 9.9%
[7]; PANC-1, 24h + 24h, dil. 100x (stocks: diclofenac 0.918, PTA 0.483, AgNO3 0.326 mg/mL)
  surviving fraction: 71.2 ± 6.5%
[7]; PANC-1, 24h + 24h, dil. 1000x (stocks: diclofenac 0.918, PTA 0.483, AgNO3 0.326 mg/mL)
  surviving fraction: 82.4 ± 7.7%
[7]; PANC-1, 72h + 24h, dil. 10 000x (stocks: diclofenac 0.918, PTA 0.483, AgNO3 0.326 mg/mL)
  surviving fraction: 89.4 ± 6.3%
[7]; PANC-1, 72h + 24h, dil. 100x (stocks: diclofenac 0.918, PTA 0.483, AgNO3 0.326 mg/mL)
  surviving fraction: 68.5 ± 6.9%
[7]; PANC-1, 72h + 24h, dil. 1000x (stocks: diclofenac 0.918, PTA 0.483, AgNO3 0.326 mg/mL)
  surviving fraction: 80.3 ± 4.1%
[8]
  log P: 1.4
[9]
  IC50: 978 ± 10.4 µM
[10]
  IC50: 699 ± 7.1 µM
[11]
  IC50: 977.3 ± 5.9 µM
[12]
  IC50: 803 ± 14.7 µM
[13]
  IC50: 1140 ± 18.3 µM
[14]
  IC50: 801 ± 124 µM
